From the NIST ThermoML archive (doi:10.1016/j.jct.2009.07.002)
Numbers after ± are expanded uncertainties.

Experiment: isobaric coefficient of expansion
Details: Liquid, DSC with Pressure Shift

CCO [ethanol]
isobaric coefficient of expansion
Details	278.15 K	288.15 K	298.15 K	308.15 K	318.15 K	328.15 K	338.15 K	348.15 K
5000 kPa	0.00102 ± 4.3e-05 1/K	0.00103 ± 4.4e-05 1/K	0.00106 ± 4.5e-05 1/K	0.00109 ± 4.6e-05 1/K	0.00112 ± 4.8e-05 1/K	0.00116 ± 4.9e-05 1/K	0.00121 ± 5.1e-05 1/K	0.00127 ± 5.4e-05 1/K
10000 kPa	0.000988 ± 4.2e-05 1/K	0.00101 ± 4.3e-05 1/K	0.00103 ± 4.4e-05 1/K	0.00105 ± 4.5e-05 1/K	0.00109 ± 4.6e-05 1/K	0.00112 ± 4.7e-05 1/K	0.00116 ± 4.9e-05 1/K	0.00122 ± 5.2e-05 1/K
15000 kPa	0.000966 ± 4.1e-05 1/K	0.000983 ± 4.2e-05 1/K	0.001 ± 4.3e-05 1/K	0.00102 ± 4.3e-05 1/K	0.00105 ± 4.5e-05 1/K	0.00108 ± 4.6e-05 1/K	0.00112 ± 4.7e-05 1/K	0.00116 ± 4.9e-05 1/K
20000 kPa	0.000948 ± 4e-05 1/K	0.000956 ± 4.1e-05 1/K	0.000973 ± 4.1e-05 1/K	0.000994 ± 4.2e-05 1/K	0.00102 ± 4.3e-05 1/K	0.00105 ± 4.4e-05 1/K	0.00108 ± 4.6e-05 1/K	0.00112 ± 4.8e-05 1/K
25000 kPa	0.000928 ± 3.9e-05 1/K	0.000936 ± 4e-05 1/K	0.000952 ± 4e-05 1/K	0.000971 ± 4.1e-05 1/K	0.000988 ± 4.2e-05 1/K	0.00102 ± 4.3e-05 1/K	0.00105 ± 4.4e-05 1/K	0.00108 ± 4.6e-05 1/K
30000 kPa	0.000908 ± 3.9e-05 1/K	0.000918 ± 3.9e-05 1/K	0.000929 ± 3.9e-05 1/K	0.000944 ± 4e-05 1/K	0.000966 ± 4.1e-05 1/K	0.000988 ± 4.2e-05 1/K	0.00102 ± 4.3e-05 1/K	0.00105 ± 4.5e-05 1/K
35000 kPa	0.000892 ± 3.8e-05 1/K	0.000899 ± 3.8e-05 1/K	0.000908 ± 3.9e-05 1/K	0.000921 ± 3.9e-05 1/K	0.000942 ± 4e-05 1/K	0.000962 ± 4.1e-05 1/K	0.000988 ± 4.2e-05 1/K	0.00102 ± 4.3e-05 1/K
40000 kPa	0.000882 ± 3.7e-05 1/K	0.000875 ± 3.7e-05 1/K	0.000887 ± 3.8e-05 1/K	0.000903 ± 3.8e-05 1/K	0.000918 ± 3.9e-05 1/K	0.000936 ± 4e-05 1/K	0.000958 ± 4.1e-05 1/K	0.000984 ± 4.2e-05 1/K
45000 kPa	0.000863 ± 3.7e-05 1/K	0.000866 ± 3.7e-05 1/K	0.000871 ± 3.7e-05 1/K	0.000883 ± 3.7e-05 1/K	0.000898 ± 3.8e-05 1/K	0.000912 ± 3.9e-05 1/K	0.000935 ± 4e-05 1/K	0.000959 ± 4.1e-05 1/K
50000 kPa	0.000852 ± 3.6e-05 1/K	0.00085 ± 3.6e-05 1/K	0.000853 ± 3.6e-05 1/K	0.000865 ± 3.7e-05 1/K	0.000882 ± 3.7e-05 1/K	0.000894 ± 3.8e-05 1/K	0.000911 ± 3.9e-05 1/K	0.000938 ± 4e-05 1/K
55000 kPa	0.000839 ± 3.6e-05 1/K	0.000831 ± 3.5e-05 1/K	0.000839 ± 3.6e-05 1/K	0.000848 ± 3.6e-05 1/K	0.000863 ± 3.7e-05 1/K	0.000877 ± 3.7e-05 1/K	0.000891 ± 3.8e-05 1/K	0.000915 ± 3.9e-05 1/K

CCCCCCCO [heptan-1-ol]
isobaric coefficient of expansion
Details	278.15 K	288.15 K	298.15 K	308.15 K	318.15 K	328.15 K	338.15 K	348.15 K
5000 kPa	0.000799 ± 3.4e-05 1/K	0.000815 ± 3.5e-05 1/K	0.000831 ± 3.5e-05 1/K	0.000854 ± 3.6e-05 1/K	0.000878 ± 3.7e-05 1/K	0.000903 ± 3.8e-05 1/K	0.000928 ± 3.9e-05 1/K	0.000956 ± 4.1e-05 1/K
10000 kPa	0.000779 ± 3.3e-05 1/K	0.000798 ± 3.4e-05 1/K	0.000811 ± 3.4e-05 1/K	0.000832 ± 3.5e-05 1/K	0.000854 ± 3.6e-05 1/K	0.000876 ± 3.7e-05 1/K	0.000901 ± 3.8e-05 1/K	0.000927 ± 3.9e-05 1/K
15000 kPa	0.000767 ± 3.3e-05 1/K	0.000784 ± 3.3e-05 1/K	0.000795 ± 3.4e-05 1/K	0.000813 ± 3.5e-05 1/K	0.000833 ± 3.5e-05 1/K	0.000849 ± 3.6e-05 1/K	0.000875 ± 3.7e-05 1/K	0.000899 ± 3.8e-05 1/K
20000 kPa	0.000754 ± 3.2e-05 1/K	0.000769 ± 3.3e-05 1/K	0.000779 ± 3.3e-05 1/K	0.000796 ± 3.4e-05 1/K	0.000814 ± 3.5e-05 1/K	0.000831 ± 3.5e-05 1/K	0.000851 ± 3.6e-05 1/K	0.000872 ± 3.7e-05 1/K
25000 kPa	0.000741 ± 3.1e-05 1/K	0.000757 ± 3.2e-05 1/K	0.000762 ± 3.2e-05 1/K	0.000776 ± 3.3e-05 1/K	0.000792 ± 3.4e-05 1/K	0.000811 ± 3.4e-05 1/K	0.00083 ± 3.5e-05 1/K	0.000848 ± 3.6e-05 1/K
30000 kPa	0.000726 ± 3.1e-05 1/K	0.000743 ± 3.2e-05 1/K	0.000747 ± 3.2e-05 1/K	0.000761 ± 3.2e-05 1/K	0.000775 ± 3.3e-05 1/K	0.000792 ± 3.4e-05 1/K	0.000809 ± 3.4e-05 1/K	0.000826 ± 3.5e-05 1/K
35000 kPa	0.000713 ± 3e-05 1/K	0.00073 ± 3.1e-05 1/K	0.000734 ± 3.1e-05 1/K	0.000747 ± 3.2e-05 1/K	0.00076 ± 3.2e-05 1/K	0.000775 ± 3.3e-05 1/K	0.000791 ± 3.4e-05 1/K	0.000806 ± 3.4e-05 1/K
40000 kPa	0.000697 ± 3e-05 1/K	0.000716 ± 3e-05 1/K	0.000716 ± 3e-05 1/K	0.00073 ± 3.1e-05 1/K	0.000742 ± 3.1e-05 1/K	0.000756 ± 3.2e-05 1/K	0.000769 ± 3.3e-05 1/K	0.000786 ± 3.3e-05 1/K
45000 kPa	0.00069 ± 2.9e-05 1/K	0.000708 ± 3e-05 1/K	0.000709 ± 3e-05 1/K	0.000717 ± 3e-05 1/K	0.00073 ± 3.1e-05 1/K	0.00074 ± 3.1e-05 1/K	0.000754 ± 3.2e-05 1/K	0.000768 ± 3.3e-05 1/K
50000 kPa	0.000682 ± 2.9e-05 1/K	0.000694 ± 2.9e-05 1/K	0.000695 ± 2.9e-05 1/K	0.000705 ± 3e-05 1/K	0.000714 ± 3e-05 1/K	0.000726 ± 3.1e-05 1/K	0.000741 ± 3.1e-05 1/K	0.000752 ± 3.2e-05 1/K
55000 kPa	0.000673 ± 2.9e-05 1/K	0.000686 ± 2.9e-05 1/K	0.000684 ± 2.9e-05 1/K	0.000693 ± 2.9e-05 1/K	0.000703 ± 3e-05 1/K	0.000715 ± 3e-05 1/K	0.000725 ± 3.1e-05 1/K	0.000737 ± 3.1e-05 1/K

CCCCCCO [hexan-1-ol]
isobaric coefficient of expansion
Details	278.15 K	288.15 K	298.15 K	308.15 K	318.15 K	328.15 K	338.15 K	348.15 K
5000 kPa	0.000821 ± 3.5e-05 1/K	0.000837 ± 3.6e-05 1/K	0.00085 ± 3.6e-05 1/K	0.000875 ± 3.7e-05 1/K	0.000898 ± 3.8e-05 1/K	0.000929 ± 3.9e-05 1/K	0.000958 ± 4.1e-05 1/K	0.000995 ± 4.2e-05 1/K
10000 kPa	0.0008 ± 3.4e-05 1/K	0.000819 ± 3.5e-05 1/K	0.000832 ± 3.5e-05 1/K	0.000853 ± 3.6e-05 1/K	0.000877 ± 3.7e-05 1/K	0.0009 ± 3.8e-05 1/K	0.000929 ± 3.9e-05 1/K	0.00096 ± 4.1e-05 1/K
15000 kPa	0.000788 ± 3.3e-05 1/K	0.000802 ± 3.4e-05 1/K	0.000812 ± 3.4e-05 1/K	0.000834 ± 3.5e-05 1/K	0.000854 ± 3.6e-05 1/K	0.000876 ± 3.7e-05 1/K	0.000903 ± 3.8e-05 1/K	0.000929 ± 3.9e-05 1/K
20000 kPa	0.000778 ± 3.3e-05 1/K	0.000786 ± 3.3e-05 1/K	0.000796 ± 3.4e-05 1/K	0.000815 ± 3.5e-05 1/K	0.000833 ± 3.5e-05 1/K	0.000854 ± 3.6e-05 1/K	0.00088 ± 3.7e-05 1/K	0.000903 ± 3.8e-05 1/K
25000 kPa	0.00076 ± 3.2e-05 1/K	0.000772 ± 3.3e-05 1/K	0.00078 ± 3.3e-05 1/K	0.000796 ± 3.4e-05 1/K	0.000812 ± 3.4e-05 1/K	0.000833 ± 3.5e-05 1/K	0.000854 ± 3.6e-05 1/K	0.000875 ± 3.7e-05 1/K
30000 kPa	0.000748 ± 3.2e-05 1/K	0.000756 ± 3.2e-05 1/K	0.000764 ± 3.2e-05 1/K	0.000779 ± 3.3e-05 1/K	0.000794 ± 3.4e-05 1/K	0.000813 ± 3.4e-05 1/K	0.000832 ± 3.5e-05 1/K	0.000852 ± 3.6e-05 1/K
35000 kPa	0.000733 ± 3.1e-05 1/K	0.000743 ± 3.2e-05 1/K	0.000749 ± 3.2e-05 1/K	0.000763 ± 3.2e-05 1/K	0.000778 ± 3.3e-05 1/K	0.000794 ± 3.4e-05 1/K	0.000813 ± 3.5e-05 1/K	0.000831 ± 3.5e-05 1/K
40000 kPa	0.000723 ± 3.1e-05 1/K	0.000731 ± 3.1e-05 1/K	0.000734 ± 3.1e-05 1/K	0.000747 ± 3.2e-05 1/K	0.000758 ± 3.2e-05 1/K	0.000776 ± 3.3e-05 1/K	0.000791 ± 3.4e-05 1/K	0.000808 ± 3.4e-05 1/K
45000 kPa	0.000716 ± 3e-05 1/K	0.00072 ± 3.1e-05 1/K	0.000724 ± 3.1e-05 1/K	0.000733 ± 3.1e-05 1/K	0.000745 ± 3.2e-05 1/K	0.000759 ± 3.2e-05 1/K	0.000776 ± 3.3e-05 1/K	0.000791 ± 3.4e-05 1/K
50000 kPa	0.000708 ± 3e-05 1/K	0.000703 ± 3e-05 1/K	0.000712 ± 3e-05 1/K	0.000721 ± 3.1e-05 1/K	0.000729 ± 3.1e-05 1/K	0.000745 ± 3.2e-05 1/K	0.000758 ± 3.2e-05 1/K	0.000772 ± 3.3e-05 1/K
55000 kPa	0.000699 ± 3e-05 1/K	0.000696 ± 3e-05 1/K	0.0007 ± 3e-05 1/K	0.000709 ± 3e-05 1/K	0.000719 ± 3.1e-05 1/K	0.000731 ± 3.1e-05 1/K	0.000744 ± 3.2e-05 1/K	0.000754 ± 3.2e-05 1/K
